Earlier results, collected in US20220133691A1, “LASOFOXIFENE TREATMENT OF VVA AND OSTEOPOROSIS IN SURVIVORS OF BREAST CANCER AND OTHER MALIGNANCIES” (Sermonix Pharmaceuticals, Inc., priority 2016, published 2022).

System: post-menopausal women with osteoporosis
Conditions: PEARL trial

For Oc1ccc2c(c1)CC[C@H](c1ccccc1)[C@@H]2c1ccc(OCCN2CCCC2)cc1 [lasofoxifene], the risk of osteoporosis (Cummings et al., NEJM 2010) is given as “reduce the risk of osteoporosis” and the “risk of breast cancer” value (post-menopausal women with osteoporosis, LaCroix et al., JNCI 2010) is given as “reduced the risk of breast cancer”.
